Experimental data reported in patent US20220062262A1, “GSNO REDUCTASE INHIBITOR AS AN ADJUNCT THERAPY WITH REMOTE ISCHEMIC CONDITIONING AND THROMBOLYTIC REPERFUSION THERAPIES IN STROKE” (KING ABDULAZIZ UNIVERSITY, priority 2020, published 2022).

Test system: PT-stroke (thrombotic occlusion of distal MCA trunk)
Assay: Photothrombotic (PT) model of stroke in aged mice, infarct volume by TTC staining
Type: in vivo
Experimental: Aged mice (16 ±1-mo) were subjected to PT-stroke via a novel lateral side surgical approach without craniotomy resulting in the thrombotic occlusion of distal main trunk of MCA. For the purpose, mice were anesthetized with isofluorane, prepared for surgery, and rose Bengal dye (50 mg/kgbwt in 200 uL of 1× sterile PBS) was intravenously (IV) infused. Mice were immediately put on a robotic stereotaxic frame, the head was rotated to face right side up, and the skull was exposed. The distal trunk of MCA was visualized underneath the skull bone (without craniotomy) using a 532 nm laser source (8-mm beam diameter; 4.5 mW) integrated to an ID8-iris (ThorLabs, NJ, USA). The MCA region above the zygomatic arc was exposed with the laser for 20-min from a distance of ˜2-3-mm. Following 20-min laser exposure, thrombotic occlusion of the distal trunk of MCA was confirmed using laser doppler flowmeter showing >60% drop in CBF and finally the lateral side skin wound was closed. All mice under C57/B6 background were bred, housed, used and related experimental procedures were performed in accordance with the approved protocol of Institutional Animal Care and Use Committees (IACUCs) of St. Joseph's Hospital and Medical Center (SJHMC), and Augusta University, Augusta, Ga. Effect of stroke on GSNOR expression/activity was first determined in a clinically relevant partially-humanized TE-stroke, embolic middle cerebral artery occlusion (eMCAo) model in aged (16±1-mo-old) male mice. Next, an effective dose-finding study of GRI therapy (stroke injury size) was performed in aged (16±1-mo-old) male mice in a photothrombotic (PT) model of stroke with the reduction in infarct volume as the primary outcome. The safety and benefits of the best dose of GRI therapy in reducing infarct volume as the primary outcome was also confirmed in reproductively senescent aged (16±1-mo-old) female mice subjected to PT-stroke. To test the benefits of GRI therapy during permanent ischemia, GRI was also tested in adult (14±1-weeks) mice of both sexes subjected to permanent model of middle cerebral artery ligation (pMCAL). All females were ovariectomized at the age of 12-weeks, i.e., 2-weeks prior to stroke surgery. A 2×2 factorial design was adopted [2 Sexes (MALE vs. FEMALE)×2 GRI (NO vs. YES)] such that all 4 groups of both sexes were subjected to pMCAL followed by randomization into two different treatment cohorts: GRI therapy or equal volume of Vehicle treatment. All mice were tested for behavioral outcome on a narrow beam test, relative CBF measurement using laser speckle contrast imaging (LSCI) and infarct volume size. […] Outcome measures such as brain tissue oxygenation (PbtO2), acute inflammatory genes response, neurological deficit, edema as percent (%) swelling and infarct volumes were assessed. […]

Cc1cc(C(N)=O)ccc1-n1c(CCC(=O)O)ccc1-c1ccc(-n2ccnc2)cc1 [GRI therapy, N6022]
stroke injury (infarct volume) vs vehicle (aged female mice, 2.5 mg/kg, P<0.05, N=10/gp): effective in reducing the stroke injury significantly
neuroprotective effect (absolute infarct volume) across doses (aged male mice, 1, 2.5, 5.0 and 10 mg/kg IV 1 h after PT-stroke, N=8/gp): dose-dependent neuroprotective effect
GRI dose from which the neuroprotective effect plateaus (aged male mice, IV 1 h after PT-stroke): > 2.5 mg/kg
infarct/injury progression vs vehicle (TTC) (aged male mice, IV 1 h after PT-stroke, P<0.0001): significantly protected against the stroke and prevented the infarct/injury progression
